Experimental data reported in PMC7516806, “Hybrid Antimicrobial Peptide Targeting Staphylococcus aureus and Displaying Anti-infective Activity in a Murine Model” (Frontiers in Microbiology, 2020).
Positions of bridges follow the written chain, without caps; N, C: chain ends. Residues, ends and D or L forms follow the SMILES beside them.

Tests used:
E. coli K99 = conditions: MHB, 2–7 × 10^5 CFU/ml, 37°C, 24 h, no turbidity, at least three independent repeats
Procedure, shortened: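 MIC values come from at least three independent experiments, each incubating peptide serial dilutions (made in 0.01% acetic acid plus 0.2% BSA) with an equal volume of bacteria at 2–7 × 10^5 CFU/ml in Mueller-Hinton broth for 24 h at 37°C.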

S. typhimurium 14028 = test: MIC, modified microtiter dilution; assay type: cell-based, Salmonella typhimurium; conditions: MHB, 2–7 × 10^5 CFU/ml, 37°C, 24 h, no turbidity, at least three independent repeats
Excerpt: (§1) The experiment was repeated at least three times independently.

S. typhimurium 7731 = test: MIC, modified microtiter dilution; assay type: cell-based, Salmonella typhimurium; conditions: MHB, 2–7 × 10^5 CFU/ml, 37°C, 24 h, no turbidity, at least three independent repeats
Excerpt: as §1

S. pullorum 7913 = test: MIC, modified microtiter dilution; assay type: cell-based, Salmonella pullorum; conditions: MHB, 2–7 × 10^5 CFU/ml, 37°C, 24 h, no turbidity, at least three independent repeats
Excerpt: as §1

P. aeruginosa 27853 = test: MIC, modified microtiter dilution; assay type: cell-based, Pseudomonas aeruginosa; conditions: MHB, 2–7 × 10^5 CFU/ml, 37°C, 24 h, no turbidity, at least three independent repeats
Excerpt: as §1

[1] = system: lipoteichoic acid (LTA) from S. aureus; test: LTA binding, BODIPY-TR-cadaverine displacement; set-up: species or system Staphylococcus aureus; conditions: comparison among peptides, BC displacement
Method: Peptides binding to LTA were assayed using the BC (Sigma, United States) displacement method ([Zorko and Jerala, 2008]). The final concentration of 50 μg/mL LTA from S. aureus was incubated with 5 μg/mL BC in Tris-HCl buffer (50 mM, pH 7.4) for 4 h in a shaking incubator at 37°C. The peptides were then serially diluted in Tris–HCl buffer, and an equal volume solution was added to the 96-well plates. The fluorescence was measured (excitation λ = 580 nm, emission λ = 620 nm) on a spectrofluorophotometer (Infinite 200 Pro, Tecan, China). The experiment was conducted three times independently.

S. aureus 29213 [2] = test: Cytoplasmic membrane depolarization, diSC3-5; assay type: cell-based, Staphylococcus aureus; conditions: 0.4 μM diSC3-5, 100 mM KCl, ex 622 nm, em 670 nm
Method: The dye diSC3-5 was employed to assay cytoplasmic membrane depolarization activities ([Shao et al., 2018]). S. aureus 29213 was diluted to an OD600 = 0.05 after washing three times with buffer (5 mM HEPES, 5 mM glucose, pH 7.4) when the bacteria grew to mid-log phase. Then, diSC3-5 at a final concentration of 0.4 μM was added into the medium and incubated for 1–1.5 h. The final concentration of 100 mM KCl was then added to the solution for 15 min. The peptides were added to 12-well plates, which were filled with 2 mL of cell suspension. An F-4500 fluorescence spectrophotometer (Hitachi, Japan) was employed to measure the fluorescence value at an excitation wavelength of 622 nm and an emission wavelength of 670 nm. Maximal augmentation was monitored, and the fluorescence of the mixture of bacteria and dye served as the blank control.

[3] = system: Staphylococcus aureus 29213; test: Propidium iodide uptake assay; assay type: cell-based; conditions: 0.5 × MIC, MIC and 2 × MIC; 10 μg/mL PI; ex 535 nm, em 617 nm
Method: Staphylococcus aureus 29213 was washed three times with buffer (5 mM HEPES, 5 mM glucose, pH 7.4) after the bacterium grew to the mid-log phase and then diluted to an OD600 = 0.05. Propidium iodide was then added to the final concentration of 10 μg/mL and incubated for 30 min at 4°C. The peptides were added to 12-well plates, which were filled with 2 mL of the cell suspension. An F-4500 fluorescence spectrophotometer (Hitachi, Japan) was employed to measure the fluorescence value at an excitation wavelength of 535 nm and an emission wavelength of 617 nm. Maximal augmentation was monitored, and the fluorescence of the mixture of bacteria and dye served as the blank control ([Morita et al., 2015]).

S. aureus 29213 [4] = test: Histology (HE) of infected skin tissue; assay type: in vivo, ICR mice; conditions: 24 h after injection of S. aureus
Method: To assess the antimicrobial activity of the peptide in vivo, a mouse model of subcutaneous infection was used ([Huang et al., 2011a]; [Omolo et al., 2017]). Female Institute for Cancer Research (ICR) mice (SPF, 20–25 g) were purchased from WeiTonglihua Co., Ltd. (Beijing, China), with eight animals per group. The mice were shaved on their backs and disinfected. S. aureus 29213 (100 μL) at a concentration of 1 × 10^8 CFU/mL was injected into the superficial skin of the mice. The mice were divided into four groups (n = 4), as follows: S. aureus + saline, S. aureus + S2 (80× MIC, 100 μL), S. aureus + vancomycin (Van) (80× MIC, 100 μL), and saline. S2, vancomycin, and saline were injected at the same site 1 h after infection. The mice were monitored over 24 h in an environmentally controlled room at 25 ± 1°C and 55 ± 5% relative humidity with a 12 h light/dark cycle.
To image the infected skin tissues, the mice were euthanized 24 h after the injection of S. aureus. Samples were fixed in 4% buffered paraformaldehyde and subjected to hematoxylin/eosin (HE) staining. The antimicrobial activity in vivo was determined by colony counting of infected skin samples. Skin homogenates were serially diluted in saline and incubated at 37°C for 24 h.

mouse skin = test: Skin toxicity in vivo, TUNEL assay; set-up: species or system ICR mice; conditions: 100 μL at 80 × MIC injected into skin, 24 h
Method: Anesthetized mice were shaved on their backs and disinfected. A total of 100 μL of S2 (80 × MIC) was injected into the skin. Equal volumes of saline and 100% DMSO were used as the negative and positive controls, respectively. The skin was removed from the injection sites for tissue processing after 24 h. OCT-embedded slides were stained using the DeadEnd^TM Fluorometric TUNEL System for the detection of apoptotic cells and counterstained with 4,6-diamidino-2-phenylindole (DAPI). Photographs were taken using a microscope ([Huang et al., 2011a]).

## CC(C)C[C@H](NC(=O)[C@H](CC(C)C)NC(=O)[C@H](Cc1c[nH]c2ccccc12)NC(=O)[C@H](Cc1c[nH]c2ccccc12)NC(=O)[C@H](Cc1c[nH]c2ccccc12)NC(=O)[C@H](CCCNC(=N)N)NC(=O)[C@@H]1CSSC[C@H](N)C(=O)N[C@@H](C)C(=O)N[C@@H](CO)C(=O)N[C@@H](Cc2ccc(O)cc2)C(=O)N[C@@H](Cc2ccccc2)C(=O)N1)C(N)=O [Peptide S2] (H-CASYFCRWWWLL-NH2; disulfide 1-6; N-terminus assumed)
E. coli K99
  MIC E. coli K99: >64 µM
S. typhimurium 14028
  MIC S. typhimurium 14028: >64 µM
S. typhimurium 7731
  MIC S. typhimurium 7731: >64 µM
S. pullorum 7913
  MIC S. pullorum 7913: >64 µM
P. aeruginosa 27853
  MIC P. aeruginosa 27853: >64 µM
[1]
  relative binding capacity to LTA: stronger binding capacity to LTA than S1 and S3
S. aureus 29213 [2]
  cytoplasmic membrane depolarization (diSC3-5 fluorescence): rapid fluorescence intensity increase
[3]
  PI uptake (PI fluorescence): rapidly disrupted the bacterial membrane and caused PI uptake
S. aureus 29213 [4]
  histomorphological changes of skin tissue (HE): good recovery
Mouse skin
  apoptotic cells in mouse skin (TUNEL): no apparent epidermal apoptosis
